# In publication PMC9851200, “Multiparameter phenotypic screening for endogenous TFEB and TFE3 translocation identifies novel chemical series modulating lysosome function” (Autophagy, 2022):
# Assays:
# [1] = target: CDC42BPG/DMPK2 (Homo sapiens, UniProt Q6DT37); conditions: cited from earlier work
# [2] = test system: ALK5/TGFBR1; conditions: cited from earlier work
# [3] = target: MAPK10/JNK3 (Homo sapiens, UniProt P53779); conditions: cited from earlier work
# [4] = target: T1, PRKD3 (Homo sapiens, UniProt O94806); conditions: cited from earlier work
# T1 sequence (O94806 1-890): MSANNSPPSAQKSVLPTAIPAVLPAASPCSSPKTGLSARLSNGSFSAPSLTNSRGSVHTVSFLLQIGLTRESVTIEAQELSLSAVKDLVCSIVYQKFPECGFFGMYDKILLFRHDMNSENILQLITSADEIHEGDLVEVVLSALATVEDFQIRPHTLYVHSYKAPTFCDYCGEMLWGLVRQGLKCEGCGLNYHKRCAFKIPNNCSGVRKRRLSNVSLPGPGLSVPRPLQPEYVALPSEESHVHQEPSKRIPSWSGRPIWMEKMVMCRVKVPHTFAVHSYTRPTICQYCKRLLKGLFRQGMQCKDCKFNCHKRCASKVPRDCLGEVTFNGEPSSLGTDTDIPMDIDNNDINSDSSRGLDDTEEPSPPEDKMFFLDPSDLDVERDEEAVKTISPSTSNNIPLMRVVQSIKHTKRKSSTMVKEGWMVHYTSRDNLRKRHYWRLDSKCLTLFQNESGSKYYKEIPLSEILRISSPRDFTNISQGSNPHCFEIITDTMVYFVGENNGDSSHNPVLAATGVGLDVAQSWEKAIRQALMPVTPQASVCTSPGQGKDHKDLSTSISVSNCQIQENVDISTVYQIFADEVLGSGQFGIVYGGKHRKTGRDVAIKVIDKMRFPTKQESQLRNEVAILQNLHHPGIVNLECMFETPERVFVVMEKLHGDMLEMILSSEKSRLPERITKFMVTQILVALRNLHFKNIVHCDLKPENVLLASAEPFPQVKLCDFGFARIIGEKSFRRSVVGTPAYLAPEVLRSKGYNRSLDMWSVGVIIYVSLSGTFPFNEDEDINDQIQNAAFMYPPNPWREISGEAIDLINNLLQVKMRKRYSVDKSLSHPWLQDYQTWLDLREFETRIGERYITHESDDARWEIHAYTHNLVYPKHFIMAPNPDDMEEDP
# [5] = test system: endogenous TFE3; assay: TFE3 nuclear translocation, immunocytochemistry high-content imaging; format: cell-based
# [6] = target: MINK1/MINK (Homo sapiens, UniProt Q8N4C8); conditions: cited from earlier work
# Sequence of MINK1/MINK (Q8N4C8 whole entry): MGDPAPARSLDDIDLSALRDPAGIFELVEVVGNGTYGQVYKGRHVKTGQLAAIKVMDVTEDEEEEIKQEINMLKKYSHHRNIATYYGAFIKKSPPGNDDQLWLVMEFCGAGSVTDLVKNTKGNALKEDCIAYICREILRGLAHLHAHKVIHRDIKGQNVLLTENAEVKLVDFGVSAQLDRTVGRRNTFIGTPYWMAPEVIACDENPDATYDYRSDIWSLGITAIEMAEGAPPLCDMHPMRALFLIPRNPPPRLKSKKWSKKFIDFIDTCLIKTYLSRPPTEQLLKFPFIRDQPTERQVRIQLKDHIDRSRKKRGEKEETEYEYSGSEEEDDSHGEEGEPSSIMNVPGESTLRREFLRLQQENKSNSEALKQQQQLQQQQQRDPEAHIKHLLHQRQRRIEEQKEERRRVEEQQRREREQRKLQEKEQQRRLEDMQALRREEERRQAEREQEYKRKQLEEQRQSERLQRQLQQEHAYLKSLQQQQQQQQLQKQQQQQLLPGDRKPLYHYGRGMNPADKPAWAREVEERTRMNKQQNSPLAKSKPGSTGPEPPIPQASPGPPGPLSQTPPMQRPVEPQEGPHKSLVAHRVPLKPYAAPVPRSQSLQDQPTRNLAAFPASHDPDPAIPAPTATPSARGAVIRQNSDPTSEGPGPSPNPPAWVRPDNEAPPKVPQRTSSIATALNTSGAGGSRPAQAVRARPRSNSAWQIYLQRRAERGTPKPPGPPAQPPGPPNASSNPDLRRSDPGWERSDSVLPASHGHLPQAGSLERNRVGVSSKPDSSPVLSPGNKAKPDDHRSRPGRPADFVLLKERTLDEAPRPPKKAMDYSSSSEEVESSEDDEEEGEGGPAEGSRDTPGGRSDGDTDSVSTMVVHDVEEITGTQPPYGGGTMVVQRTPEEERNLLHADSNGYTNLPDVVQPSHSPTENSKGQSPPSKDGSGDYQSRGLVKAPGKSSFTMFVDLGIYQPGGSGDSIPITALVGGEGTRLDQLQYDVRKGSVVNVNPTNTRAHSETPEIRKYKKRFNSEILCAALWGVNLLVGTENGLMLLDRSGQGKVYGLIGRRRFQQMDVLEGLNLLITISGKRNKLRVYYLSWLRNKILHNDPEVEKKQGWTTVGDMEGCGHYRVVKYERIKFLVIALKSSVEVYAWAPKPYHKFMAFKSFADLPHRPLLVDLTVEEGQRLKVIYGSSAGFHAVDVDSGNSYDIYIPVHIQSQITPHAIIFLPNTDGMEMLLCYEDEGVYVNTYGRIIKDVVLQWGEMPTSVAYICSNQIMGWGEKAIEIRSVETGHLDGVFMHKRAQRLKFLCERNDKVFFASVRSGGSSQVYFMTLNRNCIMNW
# [7] = target: STK10/LOK (Homo sapiens, UniProt O94804); conditions: cited from earlier work
# [8] = target: CSNK1D (Homo sapiens, UniProt P48730); conditions: cited from earlier work
# Sequence of CSNK1D (P48730 whole entry): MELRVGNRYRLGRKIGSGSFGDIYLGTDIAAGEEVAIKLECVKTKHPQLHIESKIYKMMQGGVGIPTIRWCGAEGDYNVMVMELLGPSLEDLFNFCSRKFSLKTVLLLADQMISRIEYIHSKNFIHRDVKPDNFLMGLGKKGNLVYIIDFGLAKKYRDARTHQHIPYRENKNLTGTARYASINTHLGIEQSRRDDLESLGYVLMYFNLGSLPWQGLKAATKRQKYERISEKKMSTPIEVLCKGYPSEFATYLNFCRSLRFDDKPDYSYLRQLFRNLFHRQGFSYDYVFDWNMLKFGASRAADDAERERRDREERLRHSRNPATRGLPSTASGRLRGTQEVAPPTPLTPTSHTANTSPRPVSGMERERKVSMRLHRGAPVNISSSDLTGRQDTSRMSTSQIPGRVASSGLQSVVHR
# [9] = target: MAPK9/JNK2 (Homo sapiens, UniProt P45984); conditions: cited from earlier work
# Sequence of MAPK9/JNK2 (P45984 whole entry): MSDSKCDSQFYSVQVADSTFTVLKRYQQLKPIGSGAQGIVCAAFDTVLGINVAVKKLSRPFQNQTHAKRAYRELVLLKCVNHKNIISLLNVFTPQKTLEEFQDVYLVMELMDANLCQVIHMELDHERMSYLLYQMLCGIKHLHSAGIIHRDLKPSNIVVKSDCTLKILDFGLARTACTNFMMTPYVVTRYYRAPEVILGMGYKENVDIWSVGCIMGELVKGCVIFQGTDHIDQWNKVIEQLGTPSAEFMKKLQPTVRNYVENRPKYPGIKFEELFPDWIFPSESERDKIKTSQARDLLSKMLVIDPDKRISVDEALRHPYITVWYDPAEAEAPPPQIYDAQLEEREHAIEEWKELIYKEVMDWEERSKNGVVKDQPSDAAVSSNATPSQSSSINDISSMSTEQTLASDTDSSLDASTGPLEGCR
# [10] = target: T2, PRKD2 (Homo sapiens, UniProt Q9BZL6); conditions: cited from earlier work
# T2 sequence (Q9BZL6 1-878): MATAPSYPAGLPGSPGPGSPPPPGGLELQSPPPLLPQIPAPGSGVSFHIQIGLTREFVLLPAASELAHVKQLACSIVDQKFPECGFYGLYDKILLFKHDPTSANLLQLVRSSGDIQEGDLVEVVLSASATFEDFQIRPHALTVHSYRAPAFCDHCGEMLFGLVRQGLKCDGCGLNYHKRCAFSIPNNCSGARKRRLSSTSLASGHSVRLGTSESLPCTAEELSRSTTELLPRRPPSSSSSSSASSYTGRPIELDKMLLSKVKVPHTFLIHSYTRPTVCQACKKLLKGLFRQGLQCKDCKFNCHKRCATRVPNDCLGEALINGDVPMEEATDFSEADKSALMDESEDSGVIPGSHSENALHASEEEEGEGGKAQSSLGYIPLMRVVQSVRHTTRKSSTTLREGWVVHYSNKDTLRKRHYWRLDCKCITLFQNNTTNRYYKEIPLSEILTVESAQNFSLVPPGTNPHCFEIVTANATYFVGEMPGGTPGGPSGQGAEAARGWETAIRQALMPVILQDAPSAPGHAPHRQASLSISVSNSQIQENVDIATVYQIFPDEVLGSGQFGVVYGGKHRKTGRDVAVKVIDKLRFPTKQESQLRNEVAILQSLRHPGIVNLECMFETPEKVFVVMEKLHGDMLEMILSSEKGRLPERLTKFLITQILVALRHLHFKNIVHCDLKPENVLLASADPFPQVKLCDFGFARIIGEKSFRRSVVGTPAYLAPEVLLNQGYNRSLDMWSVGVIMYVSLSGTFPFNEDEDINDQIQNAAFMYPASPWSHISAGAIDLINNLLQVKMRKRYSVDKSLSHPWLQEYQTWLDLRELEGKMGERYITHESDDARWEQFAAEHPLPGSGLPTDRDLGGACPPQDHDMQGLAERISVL
# [11] = target: T3, TGFBR1 (Homo sapiens, UniProt P36897); conditions: cited from earlier work
# T3 sequence (P36897 34-503): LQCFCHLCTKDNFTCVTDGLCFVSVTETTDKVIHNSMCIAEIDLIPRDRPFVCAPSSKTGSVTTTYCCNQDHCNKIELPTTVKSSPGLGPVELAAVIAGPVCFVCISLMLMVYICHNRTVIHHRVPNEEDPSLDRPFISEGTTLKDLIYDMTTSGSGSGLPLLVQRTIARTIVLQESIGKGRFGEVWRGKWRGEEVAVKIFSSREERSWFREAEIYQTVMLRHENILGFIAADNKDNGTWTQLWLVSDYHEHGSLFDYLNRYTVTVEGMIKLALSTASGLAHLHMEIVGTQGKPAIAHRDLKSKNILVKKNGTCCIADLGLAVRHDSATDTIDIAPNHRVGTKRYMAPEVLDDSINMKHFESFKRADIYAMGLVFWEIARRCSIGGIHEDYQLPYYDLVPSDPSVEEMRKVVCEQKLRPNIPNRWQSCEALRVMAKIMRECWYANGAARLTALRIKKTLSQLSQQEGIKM
# Sequence of MAPK10/JNK3 (P53779 whole entry): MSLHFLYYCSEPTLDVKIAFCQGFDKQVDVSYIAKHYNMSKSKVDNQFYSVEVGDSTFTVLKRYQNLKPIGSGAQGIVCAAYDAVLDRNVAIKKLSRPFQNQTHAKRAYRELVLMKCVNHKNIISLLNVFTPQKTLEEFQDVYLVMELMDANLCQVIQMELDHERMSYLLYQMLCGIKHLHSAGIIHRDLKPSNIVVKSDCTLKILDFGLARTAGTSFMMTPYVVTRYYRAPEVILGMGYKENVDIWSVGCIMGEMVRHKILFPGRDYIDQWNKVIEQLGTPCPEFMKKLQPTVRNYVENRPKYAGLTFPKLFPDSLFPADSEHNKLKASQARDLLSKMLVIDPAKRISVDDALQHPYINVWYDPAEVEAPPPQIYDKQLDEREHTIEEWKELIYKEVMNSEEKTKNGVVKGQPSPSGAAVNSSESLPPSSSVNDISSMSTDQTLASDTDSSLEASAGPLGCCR
# Sequence of CDC42BPG/DMPK2 (Q6DT37 whole entry): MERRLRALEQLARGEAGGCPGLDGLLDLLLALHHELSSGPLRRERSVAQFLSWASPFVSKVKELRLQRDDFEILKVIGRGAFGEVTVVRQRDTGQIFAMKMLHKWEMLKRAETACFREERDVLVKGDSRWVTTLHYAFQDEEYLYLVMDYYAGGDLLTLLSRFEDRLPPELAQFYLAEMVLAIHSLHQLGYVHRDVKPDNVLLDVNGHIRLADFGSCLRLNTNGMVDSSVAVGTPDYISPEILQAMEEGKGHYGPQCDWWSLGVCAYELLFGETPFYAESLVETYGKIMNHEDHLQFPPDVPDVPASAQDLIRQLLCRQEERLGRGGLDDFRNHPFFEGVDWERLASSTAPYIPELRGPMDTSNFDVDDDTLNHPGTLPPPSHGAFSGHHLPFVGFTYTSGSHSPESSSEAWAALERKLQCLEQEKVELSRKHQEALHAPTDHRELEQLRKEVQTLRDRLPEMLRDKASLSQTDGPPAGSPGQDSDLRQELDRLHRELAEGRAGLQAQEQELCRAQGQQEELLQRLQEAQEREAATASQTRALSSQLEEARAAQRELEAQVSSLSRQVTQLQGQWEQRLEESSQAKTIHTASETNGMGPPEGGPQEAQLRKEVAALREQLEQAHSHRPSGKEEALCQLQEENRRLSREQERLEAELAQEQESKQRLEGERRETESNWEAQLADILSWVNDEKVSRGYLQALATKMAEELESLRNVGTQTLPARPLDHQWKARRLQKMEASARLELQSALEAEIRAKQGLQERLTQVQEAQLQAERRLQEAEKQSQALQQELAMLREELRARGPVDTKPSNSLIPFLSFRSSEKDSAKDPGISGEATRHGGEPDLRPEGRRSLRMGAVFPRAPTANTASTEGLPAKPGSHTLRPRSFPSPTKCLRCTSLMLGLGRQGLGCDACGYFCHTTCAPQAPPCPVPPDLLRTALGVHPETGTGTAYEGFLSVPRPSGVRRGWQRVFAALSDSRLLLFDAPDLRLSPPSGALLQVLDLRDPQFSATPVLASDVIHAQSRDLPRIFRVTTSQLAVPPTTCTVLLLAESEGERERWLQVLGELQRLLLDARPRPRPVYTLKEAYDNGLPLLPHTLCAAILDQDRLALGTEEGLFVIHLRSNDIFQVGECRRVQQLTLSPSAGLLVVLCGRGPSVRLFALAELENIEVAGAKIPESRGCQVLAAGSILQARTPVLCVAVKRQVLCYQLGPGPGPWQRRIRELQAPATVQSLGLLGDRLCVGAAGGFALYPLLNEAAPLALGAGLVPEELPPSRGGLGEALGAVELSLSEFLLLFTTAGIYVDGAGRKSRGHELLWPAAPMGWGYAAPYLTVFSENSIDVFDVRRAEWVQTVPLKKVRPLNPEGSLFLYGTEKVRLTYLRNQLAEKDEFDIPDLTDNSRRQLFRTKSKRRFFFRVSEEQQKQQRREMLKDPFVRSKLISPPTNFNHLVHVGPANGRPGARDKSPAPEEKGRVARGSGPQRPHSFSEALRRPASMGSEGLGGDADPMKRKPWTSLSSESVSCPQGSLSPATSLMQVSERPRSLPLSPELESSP
compound,measurement,setting,value
Cc1cccc(-c2nc(Nc3ccc4nn[nH]c4c3)c3ccccc3n2)n1 [GW867587],KINOMEscan binding CDC42BPG/DMPK2,[1],0%
same,TGFBR1 binding,[2],0.59 µM
same,KINOMEscan binding MAPK10/JNK3,[3],0%
same,KINOMEscan binding PRKD3,[4],66%
same,TFE3 %,[5]; PKIS2 primary screening,12.03%
same,nTFE3 %,"[5]; primary screen, 1 µM, 24 h, SH-SY5Y",12%
same,KINOMEscan binding MINK1/MINK,[6],0%
same,KINOMEscan binding STK10/LOK,[7],0%
same,KINOMEscan binding CSNK1D,[8],4%
same,KINOMEscan binding MAPK9/JNK2,[9],0%
same,KINOMEscan binding PRKD2,[10],98.1%
same,KINOMEscan binding TGFBR1,[11],32%
